From patent publication US9771430B2, “Method of treating a metabolic disorder induced by obesity in a subject in need thereof by administering MK2/3 inhibitors” (THE TRUSTEES OF COLUMBIA UNIVERSITY IN THE CITY OF NEW YORK, priority 2011, dated 2017)

Columns and labels:
CaMKII = assay type: cell-based, mouse
Experimental: FIG. 1A. CaMKII enzyme activity was assayed in triplicate wells of primary mouse HCs stimulated with 100 nM glucagon (Gluc) or vehicle control (Veh) for the indicated times (*P<0.05 and **P<0.01 vs. Veh; mean±S.E.M.). FIGS. 1B-1J. Extracts of HCs or liver were probed for phospho-CaMKII, total CaMKII, and β-actin by immunoblot assay. FIG. 1B. HCs were incubated with […] glucagon for the indicated times; FIG. 1C. Glucagon was added to HCs that were pre-treated for 1 h with vehicle control (Veh) or 5 μM BAPTA-AM; FIG. 1D. Glucagon was added to HCs that were pre-treated with 0.5 μM xestospongin (XesC) or to HCs from Ip3r1fl/fl mice transduced with adeno-LacZ control or adeno-Cre (bar graph=Ip3r1 mRNA levels); FIG. 1E. Glucagon was added to HCs that were pre-treated for 1 h with vehicle control (Veh) or 10 μM H89. FIG. 1F. […] FIGS. 1G-1J. In vivo experiments. In FIG. 1G, mice were treated for 30 min with 200 μg kg−1 body weight of glucagon i.p., and in FIG. 1H, mice were pre-treated with 10 pmol g−1 xestospongin C or vehicle control i.p. 4 days prior to glucagon treatment. In FIGS. 1I-1J, mice were fed ad libitum or fasted for 12 h, or fasted for 12 h and then re-fed for 4 h.
Total RNA was extracted from hepatocytes using the RNeasy kit (Qiagen). cDNA was synthesized from 2 μg total RNA using oligo (dT) and Superscript II (Invitrogen). Real-time qPCR analysis and western blotting were performed as previously described (Timmins et al., 2009). Nuclear extraction from liver was performed using the Nuclear Extraction Kit from Panomics according to the manufacturer's instructions.
Immunoblot and RT-qPCR assays were performed as previously described (Timmins et al., 2009). Total RNA was extracted from HCs using the RNeasy kit (Qiagen). cDNA was synthesized from 2 μg total RNA using oligo (dT) and Superscript II (Invitrogen). Nuclear extraction from liver was performed using the Nuclear Extraction Kit from Panomics according to the manufacturer's instructions.

cytosolic free calcium = assay: Calcium mobilization in primary hepatocytes (Fura-2 imaging); assay type: cell-based, mouse
Experimental: Mouse primary hepatocytes were plated on glass coverslips and loaded with 5 μM Fura-2 acetoxymethyl ester (Molecular Probes) in the presence of 0.025% (w/v) pluronic F127 (Sigma-Aldrich) in Media 199 (Mediatech) for 30 minutes. […] The ratio of fluorescence intensity at the two excitation wavelengths was calculated after subtracting background fluorescence. [Ca2+]I (cytosolic free calcium concentration) was calculated using a Fura-2 calcium imaging calibration kit (Invitrogen). Images were collected and analyzed using the MetaFluor software package (Universal Imaging Corp.). Graphs represent average responses from groups of 30-40 individual cells from representative single experiments. Bar graphs represent average responses (fold over average baseline) from 150-200 cells per condition. All experiments were repeated at least three times with similar results.

Row | Compound | phospho-CaMKII (CaMKII; HCs treated with agonist) | cellular free calcium (cytosolic free calcium; exposure of primary hepatocytes to glucagon) | glucagon-induced CaMKII phosphorylation (CaMKII; HCs pre-treated with inhibitor, then glucagon) | cytosolic calcium mobilization in response to glucagon (and forskolin) (cytosolic free calcium; co-/pre-treatment with inhibitor)
1 | glucagon: hormone used to stimulate hepatocytes and mice | induced | rapid increase | – | –
2 | C1CCC[C@H]2CCCN3CC[C@@H](CCCCCC[C@@H]4CCCN5CC[C@@H](CC1)O[C@@H]45)O[C@@H]23 [Xestospongin C] | – | – | significant decrease | disrupted
